The record followed here is ChEMBL document CHEMBL1155011, “Structure-activity relationships of the cycloalkanol ethylamine scaffold: discovery of selective norepinephrine reuptake inhibitors” (J Med Chem, 2008).

Test [1] addresses T1, Sodium-dependent dopamine transporter (Homo sapiens, UniProt Q01959). Kind of test: Displacement of [3H]WIN-35428 from human recombinant dopamine transporter expressed in CHO cells at 1000 nM. The test is classed as cell-based.
Test [2] addresses T2, Sodium-dependent serotonin transporter (Homo sapiens, UniProt P31645). The test is classed as cell-based, JAR.
Target sequence in this assay (P31645 whole entry): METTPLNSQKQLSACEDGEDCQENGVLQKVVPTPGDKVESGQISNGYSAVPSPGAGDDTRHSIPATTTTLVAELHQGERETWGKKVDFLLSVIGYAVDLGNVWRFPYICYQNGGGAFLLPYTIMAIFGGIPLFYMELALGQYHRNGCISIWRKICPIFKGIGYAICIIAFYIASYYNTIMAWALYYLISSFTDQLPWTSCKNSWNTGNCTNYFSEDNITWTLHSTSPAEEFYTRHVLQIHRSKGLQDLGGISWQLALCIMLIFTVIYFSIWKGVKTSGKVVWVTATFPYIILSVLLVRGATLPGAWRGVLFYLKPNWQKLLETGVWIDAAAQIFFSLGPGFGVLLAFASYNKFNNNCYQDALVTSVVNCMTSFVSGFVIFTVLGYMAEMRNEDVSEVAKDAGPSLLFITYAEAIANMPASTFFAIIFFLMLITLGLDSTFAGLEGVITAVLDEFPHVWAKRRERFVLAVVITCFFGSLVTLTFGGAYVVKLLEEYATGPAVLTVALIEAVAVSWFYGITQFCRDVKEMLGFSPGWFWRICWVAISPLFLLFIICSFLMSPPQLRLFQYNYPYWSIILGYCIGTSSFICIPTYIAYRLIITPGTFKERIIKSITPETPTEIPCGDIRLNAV
The species named for a further test is Homo sapiens. The test can be described thus: Selectivity ratio of IC50 for human NET over IC50 for human SERT.
For test [3], the target named is T3, Sodium-dependent noradrenaline transporter (Homo sapiens, UniProt P23975).
T3 sequence (P23975 whole entry): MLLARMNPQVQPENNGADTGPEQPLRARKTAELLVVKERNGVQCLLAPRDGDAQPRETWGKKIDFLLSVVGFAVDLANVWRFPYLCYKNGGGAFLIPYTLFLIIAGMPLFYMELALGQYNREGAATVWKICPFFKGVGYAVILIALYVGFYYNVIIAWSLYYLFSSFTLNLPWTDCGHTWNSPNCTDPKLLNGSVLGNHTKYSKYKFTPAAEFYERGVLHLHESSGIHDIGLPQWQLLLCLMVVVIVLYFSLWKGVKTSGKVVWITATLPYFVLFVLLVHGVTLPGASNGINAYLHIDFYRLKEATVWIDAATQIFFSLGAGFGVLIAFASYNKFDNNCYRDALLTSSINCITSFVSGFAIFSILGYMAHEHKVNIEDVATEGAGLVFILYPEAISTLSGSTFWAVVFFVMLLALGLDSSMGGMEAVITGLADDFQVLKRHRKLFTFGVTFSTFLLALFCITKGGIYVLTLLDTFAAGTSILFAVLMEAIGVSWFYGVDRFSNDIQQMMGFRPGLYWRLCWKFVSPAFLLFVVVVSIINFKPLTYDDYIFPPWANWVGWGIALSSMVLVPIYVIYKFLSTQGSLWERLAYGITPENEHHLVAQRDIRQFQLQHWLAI
The target of the next test is Transporter (Rattus norvegicus, UniProt Q63380).
Transporter, sequence (Q63380 whole entry): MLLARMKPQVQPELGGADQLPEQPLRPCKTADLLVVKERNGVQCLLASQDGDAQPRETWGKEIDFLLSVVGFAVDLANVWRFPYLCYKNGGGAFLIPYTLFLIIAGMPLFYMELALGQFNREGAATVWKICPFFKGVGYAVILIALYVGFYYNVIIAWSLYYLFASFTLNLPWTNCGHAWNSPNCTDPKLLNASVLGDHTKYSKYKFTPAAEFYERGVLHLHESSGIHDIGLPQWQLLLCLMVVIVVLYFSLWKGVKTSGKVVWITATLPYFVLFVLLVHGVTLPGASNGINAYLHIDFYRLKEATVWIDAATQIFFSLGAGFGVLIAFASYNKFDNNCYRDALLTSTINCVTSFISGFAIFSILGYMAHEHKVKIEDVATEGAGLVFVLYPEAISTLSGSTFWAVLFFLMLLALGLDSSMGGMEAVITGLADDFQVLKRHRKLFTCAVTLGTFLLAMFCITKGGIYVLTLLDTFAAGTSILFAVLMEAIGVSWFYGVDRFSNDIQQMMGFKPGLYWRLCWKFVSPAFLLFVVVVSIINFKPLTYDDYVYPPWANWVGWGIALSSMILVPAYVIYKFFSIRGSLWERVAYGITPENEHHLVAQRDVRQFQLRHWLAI
The target in test [4] is T3, Sodium-dependent noradrenaline transporter. Kind of test: biochemical.
Test [5] shares this target. The test can be described thus: Inhibition of norepinephrine uptake at human norepinephrine transporter expressed in MDCK-Net6 cells at 1000 nM. It is filed as cell-based.
For test [6] the target is unchanged. Kind of test: Displacement of [3H]nisoxetine from human norepinephrine transporter expressed in MDCK-Net6 cells at 1000 nM. It is filed as cell-based.
Test [7] deals with T2, Sodium-dependent serotonin transporter. The test can be described thus: Inhibition of 5HT uptake at human SERT expressed in human JAR cells at 1000 nM. It is filed as cell-based.
Target sequence in this assay (P31645 whole entry, looked up): as the sequence (P31645 whole entry) above
Test [8] concerns the target T1, Sodium-dependent dopamine transporter. Kind of test: biochemical.
In test [9] the target is Sodium-dependent serotonin transporter (Rattus norvegicus, UniProt P31652).
Sodium-dependent serotonin transporter (Rattus norvegicus, UniProt P31652), sequence (P31652 whole entry): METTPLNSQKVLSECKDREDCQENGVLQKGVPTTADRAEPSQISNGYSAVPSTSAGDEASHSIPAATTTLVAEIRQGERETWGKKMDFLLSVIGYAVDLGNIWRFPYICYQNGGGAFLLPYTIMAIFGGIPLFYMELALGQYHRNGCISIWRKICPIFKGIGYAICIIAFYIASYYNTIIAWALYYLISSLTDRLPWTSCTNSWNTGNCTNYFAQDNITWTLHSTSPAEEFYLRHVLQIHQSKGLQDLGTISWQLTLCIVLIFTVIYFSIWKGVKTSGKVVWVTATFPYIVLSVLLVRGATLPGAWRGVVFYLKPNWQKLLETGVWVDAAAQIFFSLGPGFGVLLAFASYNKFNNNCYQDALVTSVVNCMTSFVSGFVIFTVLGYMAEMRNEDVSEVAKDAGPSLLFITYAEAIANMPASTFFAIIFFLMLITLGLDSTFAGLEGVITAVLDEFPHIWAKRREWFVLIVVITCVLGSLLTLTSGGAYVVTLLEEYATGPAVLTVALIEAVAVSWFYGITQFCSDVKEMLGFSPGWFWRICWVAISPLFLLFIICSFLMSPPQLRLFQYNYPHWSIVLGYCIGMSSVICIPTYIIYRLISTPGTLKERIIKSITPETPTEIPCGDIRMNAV
Description: Inhibition of 5HT uptake at rat brain SERT

T1 sequence (Q01959 whole entry): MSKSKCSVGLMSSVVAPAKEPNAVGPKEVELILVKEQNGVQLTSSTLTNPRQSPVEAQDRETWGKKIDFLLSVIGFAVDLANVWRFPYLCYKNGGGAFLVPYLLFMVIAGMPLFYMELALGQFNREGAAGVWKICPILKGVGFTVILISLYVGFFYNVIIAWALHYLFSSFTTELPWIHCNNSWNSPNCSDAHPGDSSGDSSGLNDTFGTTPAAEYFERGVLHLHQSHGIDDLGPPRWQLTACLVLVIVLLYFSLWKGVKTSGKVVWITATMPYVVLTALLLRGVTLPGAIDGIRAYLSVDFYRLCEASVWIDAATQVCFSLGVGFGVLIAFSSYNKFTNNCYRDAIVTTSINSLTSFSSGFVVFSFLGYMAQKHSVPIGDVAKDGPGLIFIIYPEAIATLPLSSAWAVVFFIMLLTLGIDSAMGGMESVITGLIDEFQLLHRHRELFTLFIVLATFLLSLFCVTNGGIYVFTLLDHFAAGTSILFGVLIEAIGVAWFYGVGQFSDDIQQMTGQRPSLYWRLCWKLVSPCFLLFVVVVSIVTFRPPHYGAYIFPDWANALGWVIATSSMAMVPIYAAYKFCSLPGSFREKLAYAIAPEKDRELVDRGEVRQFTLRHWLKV

As for `CN(C)C[C@H](c1cccc(Cl)c1)C1(O)CCCCC1`, the Activity in test [1] is 0%.

Take `CN(C)CC(c1cccc(C(F)(F)F)c1)C1(O)CCCCC1` (centres undefined): the IC50 turned out to be 534 nM in test [2], 32 nM in test [3] and 360 nM against Transporter. Moreover, the Ratio IC50 in the test filed under Homo sapiens is 16.7. Moreover, the Activity in [1] came out at 15%. Further, the Ki in test [4] was found to be 21 nM.

Take `CN(C)CC(c1cccc(Cl)c1)C1(O)CCCCC1` (centres undefined): the Activity in [1] amounted to 28%. Also, the IC50 at Transporter turned out to be 160 nM.

For the compound `OC1(C(CN2CCNCC2)c2ccccc2F)CCCCC1` (centres undefined), the inhibition in [5] was determined as 31%. Besides, the Activity in [6] was 38%.

`CN(C)CC(c1ccc(Cl)cc1)C1(O)CCCCC1` (centres undefined): the results for the IC50 (in test [2]; in test [3]; on Transporter) were 123 nM, 120 nM and 300 nM, respectively. Also, the Ratio IC50 in the test listed under Homo sapiens was 1. Moreover, the Activity in [1] amounted to 23%. For the same compound, the affinity in test [4] corresponds to a Ki of 249 nM.

As for `OC1(C(CN2CCNCC2)c2cccc(C(F)(F)F)c2)CCCCC1` (centres undefined), in [1], the Activity turned out to be 4%. The compound further showed an inhibition in [7] of 13%. Besides, in [3], the IC50 is 94 nM. The compound further had a Ki in [4] of 58 nM.

With `OC1([C@H](CN2CCNCC2)c2cccc(Cl)c2)CCCCC1`, the IC50 in test [2] was 2670 nM; in test [3], 25 nM. For the same compound, the Ki in test [4] is 17 nM; in test [8], 135 nM.

Compound `CN1CCN(C[C@H](c2cccc(Cl)c2)C2(O)CCCCC2)CC1` displayed an inhibition in [7] of 9%. The compound further showed an IC50 in test [3] of 29 nM. Besides, the Ki came out at 14 nM in test [4] and 73 nM in test [8].

With `CN(C)CC(c1ccccc1Cl)C1(O)CCCCC1` (centres undefined), the IC50 in test [2] is 177 nM; in [3] it was 205 nM; on Transporter, 640 nM; in [9] it was 13 nM. In addition, the Ratio IC50 in the test listed under Homo sapiens turned out to be 0.86. For the same compound, in test [1], the Activity was determined as 9%. In test [4], this compound yielded a Ki of 125 nM.

Regarding `CN1CCN(CC(c2cccc(Cl)c2)C2(O)CCCCC2)CC1` (centres undefined), the results for the concentration for half-maximal inhibition (IC50) in test [2] and in [3] were 18800 nM and 58 nM, respectively. In addition, the Ki in [4] was found to be 46 nM; in test [8], 53 nM.

Consider `OC1([C@@H](CN2CCNCC2)c2cccc(Cl)c2)CCCCC1`, for which the figures for the 50% inhibitory concentration (IC50) in test [2] and in test [3] were 6100 nM and 540 nM, respectively. In addition, the Ki in test [4] is 214 nM; in test [8] it was 340 nM.

As to `CN(C)C[C@@H](c1cccc(Cl)c1)C1(O)CCCCC1`, the Activity in test [1] worked out at 17%.

Turning to `CN1CCN(CC(c2cccc(C(F)(F)F)c2)C2(O)CCCCC2)CC1` (centres undefined), in [1], the Activity worked out at 6%. The compound also returned an inhibition in test [7] of 28%. The compound also returned an IC50 in test [3] of 92 nM. Further, in [4], the Ki stood at 61 nM.

Take `OC1(C(CN2CCNCC2)c2cccc(OC(F)(F)F)c2)CCCCC1` (centres undefined): the Activity in test [1] came to 13%. In test [7], the inhibition was determined as 3%. Besides, in test [3], it took 284 nM to reach half-maximal inhibition (IC50). Further, the affinity in test [4], expressed as Ki, was 140 nM.

Take `OC1(C(CN2CCNCC2)c2ccc(F)cc2)CCCCC1` (centres undefined): the Activity in test [1] came to 22%. The same compound gave an inhibition in test [7] of 29%. The IC50 in test [3] is 1500 nM. The compound further gave a Ki in test [4] of 1030 nM.

Turning to `CN1CCN(CC(c2ccc(Cl)cc2)C2(O)CCCCC2)CC1` (centres undefined), the Activity in [1] stood at 26%. Also, the inhibition amounted to 7% in [5] and 0% in test [7]. In addition, the affinity in test [4], expressed as Ki, was 1220 nM.

In the case of `COc1ccc(C(CN2CCN(C)CC2)C2(O)CCCCC2)cc1` (centres undefined), the Activity in [1] was 0%. Besides, the inhibition in [5] is 34%; in [7] it was 11%.

Turning to `CN1CCN(CC(c2ccc(OC(F)(F)F)cc2)C2(O)CCCCC2)CC1` (centres undefined), the values for the IC50 in test [2] and in [3] were 1210 nM and 575 nM, respectively. Further, the Activity in test [1] is 13%. In addition, the Ki in test [4] came out at 417 nM.

In the case of `COc1cccc(C(CN2CCN(C)CC2)C2(O)CCCCC2)c1` (centres undefined), the Activity in [1] was 4%. The compound further had an inhibition in test [7] of 14%. Besides, the IC50 in test [3] was determined as 600 nM. For the same compound, the affinity in [4] corresponds to a Ki of 514 nM.

Regarding `OC1(C(CN2CCNCC2)c2cccc(Cl)c2)CCCCC1` (centres undefined), the IC50 in test [2] was determined as 4960 nM; in test [3] it was 38 nM. Also, the Ki in test [4] was 18 nM; in test [8], 45 nM.

In turn, `CN1CCN(CC(c2ccccc2F)C2(O)CCCCC2)CC1` (centres undefined) displayed an inhibition in [5] of 19%. Further, the Activity in test [6] turned out to be 34%.

Turning to `CN1CCN(CC(c2cccc(OC(F)(F)F)c2)C2(O)CCCCC2)CC1` (centres undefined), the Activity in test [1] came out at 3%. In addition, the inhibition in test [7] was 12%.

In the case of `OC1([C@H](CN2CCNCC2)c2cccc(OC(F)(F)F)c2)CCCCC1`, the Activity in test [1] was found to be 13%. The compound also registered an inhibition in test [7] of 3%. The compound also came in with an IC50 in [3] of 140 nM. For the same compound, in [4], the Ki was 117 nM.

In turn, `CN1CCN(C[C@@H](c2cccc(Cl)c2)C2(O)CCCCC2)CC1` yielded an inhibition in test [7] of 0%. The compound also had an IC50 in test [3] of 577 nM. Moreover, the results for the Ki in [4] and in test [8] were 187 nM and 235 nM, respectively.

For `OC1([C@@H](CN2CCNCC2)c2cccc(OC(F)(F)F)c2)CCCCC1`, the Activity in test [1] was determined as 15%. In addition, the inhibition in [7] turned out to be 11%. Besides, in [3], inhibition was half-maximal at 1290 nM (IC50). The compound further showed a Ki in test [4] of 544 nM.

As for `OC1(C(CN2CCNCC2)c2ccc(Cl)cc2)CCCCC1` (centres undefined), in test [2], the IC50 was found to be 1520 nM. In [1], the Activity was determined as 35%. The compound further returned an inhibition in [5] of 29%. For the same compound, the Ki in test [4] turned out to be 717 nM.

Take `CN1CCN(CC(c2ccc(F)cc2)C2(O)CCCCC2)CC1` (centres undefined): the Activity in test [1] stood at 0%. The compound also returned an inhibition in test [7] of 32%. Further, 1450 nM corresponded to half-maximal inhibition in [3] (IC50). The compound further displayed a Ki in test [4] of 1380 nM.

Take `COc1cccc(C(CN(C)C)C2(O)CCCCC2)c1` (centres undefined): the 50% inhibitory concentration (IC50) in test [2] is 88 nM; in [3], 208 nM; against Transporter, 620 nM. In addition, the Ratio IC50 in the test listed under Homo sapiens was 0.42. In test [1], the Activity is 9%. Further, in [4], the Ki is 316 nM.

Turning to `CN1CCN(CC(c2cccc(F)c2)C2(O)CCCCC2)CC1` (centres undefined), the Activity in test [1] amounted to 29%. In [7], this compound yielded an inhibition of 12%. This compound also came in with an IC50 in [3] of 240 nM. In [4], this compound came in with a Ki of 364 nM.

As to `COc1ccc(C(CN2CCNCC2)C2(O)CCCCC2)cc1` (centres undefined), the Activity in [1] worked out at 9%. The figures for the inhibition in test [5] and in test [7] were 34% and 24%, respectively. The Ki in test [4] worked out at 519 nM.

Regarding `OC1(C(CN2CCNCC2)c2cccc(F)c2)CCCCC1` (centres undefined), the Activity in test [1] is 22%. In [7], the inhibition was 12%. The same compound had an IC50 in [3] of 673 nM. The same compound showed a Ki in [4] of 368 nM.

As for `CN1CCN(C[C@@H](c2cccc(OC(F)(F)F)c2)C2(O)CCCCC2)CC1`, the Activity in test [1] stood at 5%. In test [7], this compound yielded an inhibition of 4%.

Regarding `COc1cccc(C(CN2CCNCC2)C2(O)CCCCC2)c1` (centres undefined), the Activity in test [1] came out at 2%. In [7], this compound showed an inhibition of 8%. This compound yielded an IC50 in [3] of 870 nM. The same compound returned a Ki in test [4] of 745 nM.
